Measurements reported in BindingDB's records for doi:10.1021/jm9910371 (Uppsala University, 1999).

Target: T1, Dimer of Gag-Pol polyprotein [501-599] (Human immunodeficiency virus 1, UniProt P03367)
T1 construct: 501-599
Assay: Protease Inhibition Assay
Conditions: pH 5; 30 °C
Method: Ki values were determined by using a fluorescent substrate (DABCYL-gamma-Abu-[…]EDANS). All incubations were performed at 30°C in 0.1 M sodium acetate 1 M NaCl 1 mM DTT 1 mM EDTA 3% DMSO (pH 5.0) by using 5 uM substrate and the indicated enzyme concentrations ([E]). The enzyme concentration (A280) was determined by absorption measurements.

Compound	Ki
CNC(=O)[C@@H](NC(=O)[C@H](OCc1ccc(C2CCCC(=O)C2=O)cc1)[C@H](O)[C@@H](O)[C@@H](OCc1ccc(C2CCCC(=O)C2=O)cc1)C(=O)N[C@H](C(=O)NC)C(C)C)C(C)C (stereo partly drawn) [N1,N6-Bis[(1S)-2-methyl-1-(methylcarbamoyl)pro-pyl](2R,3R,4R,5R)-2,5-bis[4-(3-cyclohexane-1,2-dionyl)benzyloxy]-3,4-dihydroxyhexanediamide]	0.3 nM
CNC(=O)[C@@H](NC(=O)[C@H](OCc1ccccc1)[C@H](O)[C@@H](O)[C@@H](OCc1ccccc1)C(=O)N[C@H](C(=O)NC)C(C)C)C(C)C [1-Valine Methylamide deriv. 1]	0.4 nM
